What was measured:
[1] = test system: MKK4-JNK3 module; experiment: JNK3 phosphorylation by co-expressed MKK4 in cells; format: cell-based, African green monkey; conditions: YFP-T1A co-expressed with MKK4 in COS7 cells
Procedure: To test whether T1A can promote JNK3 phosphorylation by MKKs in cells, MKK4 or MKK7 was co-expressed with YFP-T1A in COS7 cells, using YFP and full-length arrestin-3 as negative and positive controls, respectively (FIG. 2C).
COS-7 African green monkey cells were maintained in DMEM supplemented with 10% heat-inactivated FBS (Invitrogen), penicillin, and streptomycin at 37° C. in a humidified incubator with 5% CO2. The cells were plated at 80-90% confluence and transfected using Lipofectamine 2000 (Invitrogen) according to the manufacturer's instructions. Cells were used 48 h post-transfection and serum-starved overnight before experiments.
COS-7 cells were incubated with phosphatase inhibitors (50 mM NaF and 10 mM Na3VO4) in serum-free medium for 15 min at 37° C.; washed with cold PBS; and lysed with SDS lysis buffer containing 1% SDS, 10 mM Tris (pH7.4), 10 mM NaF, 100 μM Na3VO4, 2 mM EDTA, 2 mM benzamidine and 1 mM PMSF. JNKs activity was assayed by Western blotting using an antibody specific for phosphorylated JNK to detect phosphorylated (active) JNKs^17,20,23. […] Protein was measured using the Bio-Rad Coomassie Blue assay. […] Protein bands were detected by enhanced chemiluminescence (ECL, Pierce), followed by exposure to x-ray film. To quantify phospho-JNKs, serial dilutions of anisomycin (1 μg/ml)-stimulated HEK-A cell lysates were used to ensure that all samples were in linear range. […]

[2] = biological target: T1, ASK1 (Homo sapiens, UniProt Q99683); experiment: Co-immunoprecipitation of HA-ASK1 with YFP construct from COS7 cells; format: binding; conditions: HA-ASK1 and YFP-T1A co-expressed in COS7 cells, anti-GFP antibody
T1 construct: expressed in transfected cells; host or cells: COS7
T1 sequence (Q99683 1-1374): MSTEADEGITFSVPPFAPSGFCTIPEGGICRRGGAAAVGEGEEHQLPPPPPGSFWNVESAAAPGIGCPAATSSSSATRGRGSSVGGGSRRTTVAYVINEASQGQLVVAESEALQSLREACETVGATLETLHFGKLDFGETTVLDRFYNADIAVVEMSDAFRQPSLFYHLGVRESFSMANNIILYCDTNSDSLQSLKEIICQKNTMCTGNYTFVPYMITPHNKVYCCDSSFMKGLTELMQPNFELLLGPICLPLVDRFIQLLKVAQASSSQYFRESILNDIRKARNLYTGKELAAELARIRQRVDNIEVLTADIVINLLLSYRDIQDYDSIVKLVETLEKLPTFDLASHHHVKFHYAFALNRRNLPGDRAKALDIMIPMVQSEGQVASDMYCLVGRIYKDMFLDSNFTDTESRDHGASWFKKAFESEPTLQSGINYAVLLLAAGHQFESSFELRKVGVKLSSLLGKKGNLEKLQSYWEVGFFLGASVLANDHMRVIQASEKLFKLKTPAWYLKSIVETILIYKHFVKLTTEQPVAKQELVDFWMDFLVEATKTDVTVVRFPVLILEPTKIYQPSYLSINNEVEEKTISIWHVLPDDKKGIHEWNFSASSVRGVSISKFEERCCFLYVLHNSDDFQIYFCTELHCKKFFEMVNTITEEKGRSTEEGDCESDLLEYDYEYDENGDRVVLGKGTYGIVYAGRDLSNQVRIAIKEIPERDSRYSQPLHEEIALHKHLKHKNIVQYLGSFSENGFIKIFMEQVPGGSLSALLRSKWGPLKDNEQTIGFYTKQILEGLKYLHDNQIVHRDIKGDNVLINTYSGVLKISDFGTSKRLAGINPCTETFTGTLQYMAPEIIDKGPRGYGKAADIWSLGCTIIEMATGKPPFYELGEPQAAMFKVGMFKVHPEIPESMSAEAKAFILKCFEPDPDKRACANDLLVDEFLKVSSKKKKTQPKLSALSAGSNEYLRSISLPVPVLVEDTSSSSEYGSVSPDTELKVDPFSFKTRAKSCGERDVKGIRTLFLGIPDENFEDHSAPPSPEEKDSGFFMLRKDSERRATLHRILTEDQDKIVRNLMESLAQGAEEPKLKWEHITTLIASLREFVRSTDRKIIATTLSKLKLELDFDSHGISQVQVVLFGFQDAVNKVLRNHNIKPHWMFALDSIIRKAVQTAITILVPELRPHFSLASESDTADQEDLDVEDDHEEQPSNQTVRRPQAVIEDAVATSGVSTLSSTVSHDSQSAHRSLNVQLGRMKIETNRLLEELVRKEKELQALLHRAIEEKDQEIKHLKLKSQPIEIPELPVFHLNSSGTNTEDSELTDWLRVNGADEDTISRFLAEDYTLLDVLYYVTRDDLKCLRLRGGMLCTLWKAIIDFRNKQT
Procedure: T1A was expressed in E. coli as an MBP-fusion and purified it on an amylose column^23. The ability of purified GST-MKK4 or GST-MKK7 (FIG. 1A) to bind MBP-T1A immobilized on an amylose column was tested in an in vitro pull-down assay, where MBP and MBP-arrestin-3 served as negative and positive controls, respectively (FIG. 1B). MBP-T1A, but not control MBP, effectively retained both kinases (FIG. 1B). […] Next, it was tested whether T1A binds the uppermost kinase in the cascade, ASK1. Because ASK1 is not available in purified form, HA-tagged ASK1 and YFP-tagged T1A (using YFP as a control) were co-expressed in COS7 cells, lysed the cells, and immunoprecipitated YFP constructs with anti-GFP antibody (FIG. 1C).

MGEKPGTRVFKKSSPNCKLTVYLGK (bovine) [T1A, first 25 residues of arrestin-3]
JNK3 phosphorylation by MKK4 in cells [1]: necessary and sufficient to promote the signaling | binding of ASK1 (co-immunoprecipitation) [2]: binds all upstream kinases of its activation cascade
